This note sets out measurements from patent publication US20240294572A1, “Antimicrobial Peptides” (priority 2021, published 2024).

The structures appear in SMILES notation. Residues, ends and D or L forms follow the SMILES beside them. *: point of attachment. Decanoyl = CCCCCCCCCC(=O)*

Assay [1] addresses T1, Apolipoprotein A-II (P09813) (Mus musculus, UniProt P09813).
T1 construct: incubated with 5% mouse plasma; from tissue; host or cells: mouse plasma (5%)
Nature of the assay: Mass spectrometry of mouse plasma proteins bound to bead-immobilized peptide. The conditions noted are these: intensity bound to L-form / D-form of C10-KR8. Type of assay: binding. As for the experimental part: (§1) Dynabeads M-370 amine (2×10^9 beads/mL, 50 μL; Thermo Fisher Scientific) were washed 3 times in sterile PBS (1 mL; GIBCO) and reacted with a bifunctional SM(PEG)4 cross-linker (5 mg/mL in DMSO) containing N-hydroxysuccinimide (NHS) ester and maleimide functional groups. A stable covalent bond between the amino group of beads and the NHS ester of the cross-linker was formed in PBS at pH 7.2 at room temperature for 24 hours with shaking at 80 rpm. The beads were then washed six times with PBS to remove nonreacted cross-linker. Next, peptide C10-KR8 (with a cysteine at the N-terminus) at 5 mg/mL was reacted with the free maleimide group in PBS for 24 hours at room temperature with shaking at 80 rpm. Another round of washing was conducted to remove the nonreacted peptides. Both the L-and D-forms of the peptide were coupled in the same manner. A portion of the beads without peptide coupling was saved as a control.
(§2) For serum binding experiments, the beads were resuspended in 500 μL of PBS; 200-μL aliquots of the coated and control dynabead were incubated with 5% mouse plasma for 18 hours at 37° C. After binding, the beads were washed six times with PBS to remove unbound proteins. Finally, the beads were suspended in 50 μL of PBS for mass spectrophotometric analysis to identify peptide-binding partners.
(§3) The samples were reduced by 10 mM dithiothreitol (DTT) and incubated for 30 minutes at 56° C. and back to room temperature. A final concentration of 50 mM iodoacetamide was added to alkylate free cysteines followed by further incubation for 20 min in the dark. Bound proteins were enzymatically digested by trypsin (4 μL of 0.5 μg/mL) overnight. A 60 […] portion was transferred to a new Eppendorf® tube and dried for 2 hours. The samples were then dissolved in 20 μL of 2% acetonitrile with 0.1% formic acid before being loaded to Q-tip columns (Pepclean, C18 spin column). Column was activated by pipetting in and out (4× times), 10 μL of 70% acetonitrile with 0.1% formic acid, and equilibrating with the same volume of 2% acetonitrile with 0.1% formic acid. Binding of the samples was done by mixing more than 10 × times, followed by washing in the same buffer (2% acetonitrile with 0.1% formic acid). The bound peptides were then eluted with 20 μL of 70% acetonitrile with 0.1% formic acid. Samples were subjected to LC-MS analysis after being suspended in the desired buffer.
(§4) Extracted peptides were resuspended in 2% acetonitrile (ACN) and 0.1% formic acid (FA) and loaded onto trap column Acclaim™ PepMap™ 100 75 μm×2 cm C18 LC Columns (Thermo Scientific) at a flow rate of 4 μL/minute. These were then separated with a Thermo RSLC UltiMate™ 3000 on a Thermo Easy-Spray PepMap™ M RSLC C18 75 μm×50 cm C-18 2 μm column (Thermo Scientific) with a step gradient of 4-25% solvent B (0.1% FA in 80% ACN) from 10 to 37 minutes and 25-45% solvent B for 37-46 minutes at 300 nL/min and 50° C. with a 70 minute total run time. Eluted peptides were analyzed by a Thermo Orbitrap Fusion™ Lumos™ Tribrid™ (Thermo Scientific) mass spectrometer in a data dependent acquisition mode. A survey full scan MS (from m/z 350-1800) was acquired in the orbitrap with a resolution of 120000. The AGC target for MS1 was set as 4×10^5 and the ion filling time set as 100 ms. The most intense ions with charge state 2-6 were isolated in 3 second cycle and fragmented using HCD fragmentation with 40% normalized collision energy and detected at a mass resolution of 30000 at 200 m/z. The AGC target for MS/MS was set as 5×10^4 and ion filling time set 60 ms dynamic exclusion was set for 30 seconds with a 10 ppm mass window. Protein identification was performed by searching MS/MS data against the Swiss-Prot mouse protein database. The search was set up for full tryptic peptides with a maximum of two missed cleavage sites. Acetylation of protein N-terminus and oxidized methionine were included as variable modifications, and carbamidomethylation of cysteine was set as fixed modification. […]

Assay [2] addresses T2, Apolipoprotein C-I (P34928) (Mus musculus, UniProt P34928).
T2 construct: incubated with 5% mouse plasma; from tissue; host or cells: mouse plasma (5%)
T2 sequence (P34928 27-88): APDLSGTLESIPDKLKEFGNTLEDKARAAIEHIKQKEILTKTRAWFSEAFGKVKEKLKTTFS
Described as above. Type of assay: binding. The conditions noted are these: intensity bound to L-form / D-form of C10-KR8. As for the experimental part: as §1, §2, §3, §4

T1 sequence (P09813 19-102): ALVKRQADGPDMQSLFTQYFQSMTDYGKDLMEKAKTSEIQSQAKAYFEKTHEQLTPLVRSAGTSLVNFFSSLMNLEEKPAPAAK

With `CCCCCCCCCC(=O)N[C@@H](CCCCN)C(=O)N[C@@H](CCCNC(=N)N)C(=O)N[C@H](C(=O)N[C@@H](Cc1c[nH]c2ccccc12)C(=O)N[C@@H](CCC(N)=O)C(=O)N[C@@H](CCCNC(=N)N)C(=O)N[C@H](C(=O)N[C@@H](CCCCN)C(N)=O)[C@@H](C)CC)[C@@H](C)CC` [Peptide C10-KR8] (Decanoyl-KRIWQRIK-NH2), the “L/D Ratio, Apolipoprotein A-II” value in assay [1] came to 0.00147. In addition, the “L/D Ratio, Apolipoprotein C-I” value in assay [2] is recorded as 2.08.
